Results published in PMC11063903, “Engineering a human P2X2 receptor with altered ligand selectivity in yeast” (The Journal of Biological Chemistry, 2024).
Positions count from the first letter of the chain named.

Experiments:
P2X2 A304W = molecular target: T1, P2X2 A304W (Homo sapiens, UniProt Q9UBL9, A304W); test: Fast GCaMP-mScarletI assay in yeast, P2X2 A304W; type: cell-based; conditions: for Bottom, best fit value / Hillslope, best fit value / Top, best fit value: four-parameter logistic fit of ΔF/ΔT; for Bottom, best fit value / Hillslope, best fit value / Top, best fit value / EC50: n = 3; for EC50: four-parameter logistic fit, unit inferred, unit M, read-out: EC50, best fit value
T1 construct: expressed in transfected cells; host or cells: S. cerevisiae BY4741 background
T1 sequence (Q9UBL9 1-471 A304W): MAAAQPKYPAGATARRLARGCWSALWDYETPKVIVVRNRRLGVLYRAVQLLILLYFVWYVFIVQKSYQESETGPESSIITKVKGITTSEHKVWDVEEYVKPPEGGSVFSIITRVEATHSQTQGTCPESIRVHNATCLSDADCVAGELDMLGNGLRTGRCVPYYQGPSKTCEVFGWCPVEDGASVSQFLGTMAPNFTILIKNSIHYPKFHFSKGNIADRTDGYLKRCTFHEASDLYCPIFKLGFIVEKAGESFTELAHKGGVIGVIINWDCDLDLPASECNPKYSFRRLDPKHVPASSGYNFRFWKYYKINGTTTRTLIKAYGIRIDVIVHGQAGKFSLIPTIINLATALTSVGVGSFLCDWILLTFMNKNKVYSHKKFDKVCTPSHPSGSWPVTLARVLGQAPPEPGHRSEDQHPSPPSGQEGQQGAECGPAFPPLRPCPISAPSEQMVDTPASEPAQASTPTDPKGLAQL
Experimental: (§1) Figure 4 Unnatural-ligand gating in LBD libraries.A, WT P2X2 was tested with 1 mM ATP, 500 μM AMP-PNP, and compared to ATP with the broken receptor (K81C K83C) control with 1 mM ATP in the fast GCaMP-mScarletI assay (n = 3). […] B, heat map summarizing AMP-PNP signaling (ΔF/ΔT, fast GCaMP-mScarletI assay) in the site-saturation libraries (n = 2–3). All values are normalized to WT P2X2 with saturating amounts of AMP-PNP (500 μM) and therefore represent low signal (ΔF/ΔT) compared to the ATP ligand. C, F301W, F303Y, and A304W were combinatorially combined and tested against the WT, K81C K83C broken P2X2, and the single mutant clones with both ATP (1 mM, black) and AMP-PNP (500 μM, pink). […] Values here represent signal onset and are not normalized to a positive control (n = 2–5). D–K, dose response of each P2X variant with both ATP (black) and AMP-PNP (pink) in the fast GCaMP-mScarletI assay (n = 3). Statistics were performed via one-way ANOVA with Dunnett’s multiple comparisons with to the “broken” K81C K83C negative control. ∗ represents a p value ≤0.05, ∗∗ is p ≤ 0.01, and ∗∗∗ is p ≤ 0.001.
Given that the yeast-based screen seemed to recapitulate important structural and functional features of human ion channel function, we hypothesized that it might be possible to engineer new P2X2 functionalities in yeast, including new ligand specificity. […] We screened our 133-member library in the presence of 500 μM AMP-PNP (Fig. S7). While the AMP-PNP signal was uniformly low, three substitutions (F301W, F303Y, and A304W) increased signaling 2.5 to 2.8 times relative to the negative control receptor (Figs. 4B, and S7, D, F, and G). To gain a more complete view of the properties of these mutants, dose–response curves were generated with ATP and AMP-PNP (Fig. 4, D–G, and Table S2).
(§2) GCaMP assays were performed as follows. P2X2 GCaMP strains were designed with a bi-cistronic reporter, in which the GCaMP protein was followed by a 2A peptide and a mScarletI reporter ([53]). The co-translated mScarletI was designed to act as a control for plasmid loss, GCaMP breakage via nonsense mutation, and contamination. […] P2X2-GCaMP strains were cultured and induced as previously described. Samples were induced for 24 h to allow for the accumulation of the mature GCaMP protein. Cells were washed three times in 0.1 M MES/Tris buffer and resuspended with MES/Tris with supplemental calcium. Cells were loaded onto a black, clear bottom microplate and imaged on a FlexStation3 plate reader. Samples were imaged in “flex” mode. Samples were imaged for 48 s at an interval of 1.6 s. Fluorescence was measured with an excitation at 485 nm, and emission 525 nm. At the 21 s mark, 100 μl ligand solution was transferred to the cells. For strains with mScarlet, fluorescence was read with excitation 570 nm/emission 610 nm. Slopes were calculated from the last 6 points of measurement and were normalized to the positive control samples. Any replicate in which the mScarlet value was measured to be over 2 standard deviations less than the mean for that set was discarded from further analysis.
(§3) For multiple comparisons in the site-saturation screening data, One-way ANOVA with Dunnett’s multiple comparisons test was performed where every sample was compared to the “broken” negative control. Significance was plotted where ∗ represents a p value ≤0.05, ∗∗ is p ≤0.01, and ∗∗∗ is p ≤0.001. Dose–response curves were fit with nonlinear regression software using a four-parameter logistic curve. All statistics were calculated and plotted in Graphpad Prism software.

P2X2 F301W+F303Y+A304W = molecular target: T2, P2X2 F301W+F303Y+A304W (Homo sapiens, UniProt Q9UBL9, A304W/F301W/F303Y); test: Fast GCaMP-mScarletI assay in yeast, P2X2 F301W+F303Y+A304W; type: cell-based; conditions: for Bottom, best fit value / Hillslope, best fit value / Top, best fit value: four-parameter logistic fit of ΔF/ΔT
T2 construct: expressed in transfected cells; host or cells: S. cerevisiae BY4741 background
T2 sequence (Q9UBL9 1-471 F301W/F303Y/A304W): T1 sequence (Q9UBL9 1-471 A304W) with F301W, F303Y
Experimental: as §1
The combined mutations were synergistic, with F303Y + A304W having a predicted additive effect of ca. Ten-fold, relative to the 73-fold seen.
as §2, §3

activity compared to the wild-type (P2X2 A304W; AMP-PNP dose-response, high ligand concentrations) [fold] | improvement compared to the WT channel (rate of signal onset ΔF/ΔT) (P2X2 F301W+F303Y+A304W; at 500 μM AMP-PNP) [fold] | Compound | Bottom, best fit value (P2X2 A304W) | Hillslope, best fit value (P2X2 A304W) | Top, best fit value (P2X2 A304W) | EC50 (P2X2 A304W) [µM] | Bottom, best fit value (P2X2 F301W+F303Y+A304W; n = 3) | Hillslope, best fit value (P2X2 F301W+F303Y+A304W; n = 3) | Top, best fit value (P2X2 F301W+F303Y+A304W; n = 3) | EC50 (P2X2 F301W+F303Y+A304W; four-parameter logistic fit, n = 3, unit inferred, unit M, read-out: EC50, best fit value) [µM]
55.87 | 24 | Nc1ncnc2c1ncn2[C@@H]1O[C@H](COP(=O)(O)OP(=O)(O)NP(=O)(O)O)[C@@H](O)[C@H]1O [AMP-PNP] | -0.1131 | 1.702 | 50.72 | 621 | -0.1127 | 1.945 | 97.49 | 
 |  | Nc1ncnc2c1ncn2[C@@H]1O[C@H](COP(=O)(O)OP(=O)(O)OP(=O)(O)O)[C@@H](O)[C@H]1O [ATP] | 0.89 | 2.41 | 67.64 | 16.6 | 0.79 | 2.37 | 148.40 | 8.88
